Assay results from patent publication US20070259909A1, “Novel Difluoroethoxy-Substituted Hydroxy-6-Phenylphenanthridines and Their Use as Pde4 Inhibitors” (ALTANA PHARMA AG, priority 2004, published 2007).

Target: T1, PDE4B2 (Homo sapiens, UniProt Q07343)
T1 construct: made in house; host or cells: SF21 insect cells (baculovirus; virus generated in SF9 cells)
Assay: PDE4B2 [3H]cAMP SPA enzyme assay (inhibition of PDE4 activity)
Assay type: biochemical
Details: recombinant PDE4B2 (GB no. M97515) expressed in SF21 insect cells; cAMP substrate; 37° C., 15 min; read-out: -log IC50(mol/l), Inhibition of the PDE4 activity (converted)
Method: The PDE4B2 (GB no. M97515) was a gift of Prof. M. Conti (Stanford University, USA). It was amplified from the original plasmid (pCMV5) via PCR with primers Rb9 (5′-[…]-3′) and Rb10 (5′-[…]-3′) and cloned into the pCR-Bac vector (Invitrogen, Groningen, NL).
The recombinant baculovirus was prepared by means of homologous recombination in SF9 insect cells. The expression plasmid was cotransfected with Bac-N-Blue (Invitrogen, Groningen, NL) or Baculo-Gold DNA (Pharmingen, Hamburg) using a standard protocol (Pharmingen, Hamburg). Wt virus-free recombinant virus supernatant was selected using plaque assay methods. After that, high-titre virus supernatant was prepared by amplifying 3 times. […]
The SF21 insect cells were resuspended, at a concentration of approx. 10^7 cells/ml, in ice-cold (° C.) homogenization buffer (20 mM Tris, pH 8.2, containing the following additions: 140 mM NaCl, 3.8 mM KCl, 1 mM EGTA, 1 mM MgCl2, 10 mM P-mercaptoethanol, 2 mM benzamidine, 0.4 mM Pefablock, 10 μM leupeptin, […] pepstatin A, 5 μM trypsin inhibitor) and disrupted by ultrasonication. […] The protein content was determined by the Bradford method (BioRad, Munich) using BSA as the standard. […]
Representative inhibitory values determined for the compounds according to the invention follow from the following table A, in which the numbers of the compounds correspond to the numbers of the Examples.

T1 sequence (Q07343 1-564 isoform Q07343-2): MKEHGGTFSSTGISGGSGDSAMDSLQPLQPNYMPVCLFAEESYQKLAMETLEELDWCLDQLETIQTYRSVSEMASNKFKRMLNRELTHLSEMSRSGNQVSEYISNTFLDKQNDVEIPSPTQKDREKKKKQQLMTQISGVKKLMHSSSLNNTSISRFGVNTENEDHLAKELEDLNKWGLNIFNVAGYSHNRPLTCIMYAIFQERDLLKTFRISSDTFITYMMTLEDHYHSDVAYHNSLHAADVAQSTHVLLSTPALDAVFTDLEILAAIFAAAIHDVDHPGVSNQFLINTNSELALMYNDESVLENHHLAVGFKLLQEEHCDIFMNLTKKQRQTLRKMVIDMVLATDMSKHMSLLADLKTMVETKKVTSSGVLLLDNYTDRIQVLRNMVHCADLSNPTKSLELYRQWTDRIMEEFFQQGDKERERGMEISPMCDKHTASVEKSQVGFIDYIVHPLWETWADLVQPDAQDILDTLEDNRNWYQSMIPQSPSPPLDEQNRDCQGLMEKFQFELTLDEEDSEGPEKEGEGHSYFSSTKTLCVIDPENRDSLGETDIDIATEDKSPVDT

Row | IC50 [nM] | SMILES
1 | 0.708 | COc1cc2c(cc1OCC(F)F)C1CC(O)CCC1N=C2c1ccc(F)cc1 (racemic) [Compound 1, (2RS,4aRS,10bRS)-9-(2,2-Difluoroethoxy)-6(4fluorophenyl)-8-methoxy-(1,2,3,4,4a,10b)-hexahydrophenanthridin-2-ol]
2 | 1.82 | COc1cc2c(cc1OCC(F)F)[C@H]1C[C@H](O)CC[C@H]1N=C2c1ccc(C#N)cc1 (racemic) [Compound 3, 4-[(2RS,4aRS,10bRS)-9-(2,2-Difluoro-ethoxy)-2-hydroxy-8-methoxy-1,2,3,4,4a,10b-hexahydro-phenanthridin-6-yl]-benzonitrile]
